EC50 data for 67 molecules are collected here from PubChem BioAssay AID1902 (Broad Institute, 2009).

The source made the active and inactive calls.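 The calls were made as follows: active = EC50 no more than a set limit of log units above the highest dose; inactive = the rest.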

The target in the experiment is S. pyogenes SKKanGAS, kanamycin survival, BacTiterGlo, 6 h. The experiment is described as follows: S. pyogenes SKKanGAS kanamycin growth inhibitors – SKKanGAS strain, luminescence, dose confirmation, streptokinase promoter inhibitor project, dose response (AID 1902).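 Also: lower survival reflects blocked streptokinase promoter driving kanamycin resistance gene.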
A word on the EC50: it is the concentration needed to bring the measured effect to its halfway point. As for `COc1cnc(-c2ccccn2)nc1N(C)c1ccccc1`, the EC50 was 6.8 µM.

For `CC(C)C1O/C(=N/C(=O)Nc2ccc(Cl)c(Cl)c2)NC1=O` (configuration not stated), the EC50 is 2.53 µM.

On to `CCCCCCCCCC[N+](C)(C)CC/C=C1/c2ccccc2Sc2ccc(Cl)cc21`, for which the concentration giving a half-maximal response (EC50) was 2.31 µM.

With `COc1ccc(/C=C/C(=O)NC(=S)NNC(=O)c2cc(OC)c(OC)c(OC)c2)cc1OC`, the EC50 is 1.48 µM.

Consider `FC(F)Oc1ccccc1C1CC(c2ccc(Br)s2)Nc2ncnn21` (configuration not stated), for which the half-maximal effective concentration (EC50) was 2.83 µM.

As to `O=C(NNc1c2ccccc2nc2ccccc12)c1ccc(O)cc1O`, the EC50 was 3.15 µM.

In the case of `CCCCCCCCCCOC(=O)Cn1c(COc2ccccc2)[n+](C)c2ccccc21`, the EC50 is 7.96 µM.

`CCOc1ccc(-c2nnc3ccc(SC(C)C)nn23)cc1`: the EC50 was 2.15 µM.

For `O=C1c2ccccc2C2=Nc3ccccc3SC(c3ccc(Cl)cc3)C12` (configuration not stated), the EC50 was 3.9 µM.

On to `CC(=O)Nc1nc(NC(=O)/C=C/c2ccccc2)n(-c2ccccc2)n1`, for which the EC50 is 1.74 µM.

For `CCOC(=O)Nc1ccc(OCc2nnc3c4ccccc4c(C)nn23)cc1`, the EC50 is under 0.06 µM.

For `Cc1ccccc1OCC(=O)NC(=S)Nc1ccc(Br)c(C)n1`, the EC50 is > 15 µM (inactive).

Take `Oc1ccccc1C1CCCCC1c1ccccc1` (configuration not stated): the EC50 was 3.9 µM.

Turning to `C=CCN1C(=O)/C(=C/c2ccc(OC(C)=O)c(OCC)c2[N+](=O)[O-])SC1=S`, the EC50 is 1.62 µM.

For the molecule `CSCc1cc(N(C)c2ccccc2)nc(-c2ccccn2)n1`, the EC50 was 0.136 µM.

With `Cc1cc(C)c(CSc2ncc(-c3ccc([N+](=O)[O-])cc3)[nH]2)c(C)c1`, the EC50 is 4.19 µM.

As to `O=[N+]([O-])c1c(NCCO)cc(Sc2nc3ccccc3s2)c2nonc12`, the EC50 is 2.95 µM.

For `O=C(c1ccc(Cl)cc1)c1cnc(Nc2ccccc2Cl)s1`, the EC50 is 6.77 µM.

In the case of `Cc1ccc(C(C)C)c(OCc2ccc(C(=O)N/N=C/c3cccc(O)c3O)cc2)c1`, the EC50 is 5.66 µM.

In the case of `Cc1cccc(OCC(=O)NCC(=O)N/N=C/c2cc(Br)cc(Br)c2O)c1`, the EC50 is 0.723 µM.

With `Cc1cc(/C=C2\C(=N)N3N=C(S(C)(=O)=O)SC3=NC2=O)c(C)n1Cc1ccccc1`, the EC50 was 4.77 µM.

For the molecule `FC(F)(F)c1cccc(-c2cc3ccccc3nc2N2CCCC2)c1`, the EC50 was 3.6 µM.

With `COc1ccc(Cc2[nH]n3c(=O)cc(C(C)C)nc3c2-c2ccccc2)cc1`, the 50% effective concentration (EC50) was 2.33 µM.

`O=C(O)c1ccc(CSc2nc(-c3ccc(Cl)cc3)cc(C(F)(F)F)n2)cc1`: the EC50 was 2.69 µM.

Turning to `CCOc1cccc2sc(Nc3nc4ccc(NC(C)=O)cc4s3)nc12`, the EC50 is 4.69 µM.

`O=C(NC(=S)NNC(=O)c1ccco1)c1ccc(Br)cc1`: the EC50 was 0.772 µM.

As for `Cc1ccc(-c2cc([C@H]3[C@@H]4C=CCC[C@@]4(C)C(=O)N3Cc3ccccc3)ccc2F)cc1`, the EC50 is 3.44 µM.

As to `Cc1ccc(/C=C2/Sc3ccc(C(=O)N4CCN(c5ccccn5)CC4)cc3NC2=O)cc1`, the EC50 was 1.91 µM.

Turning to `CC1(C)N=C(N)NC(Nc2ccccc2)=N1`, the EC50 is 3.75 µM.

Regarding `COc1cccc(N=Nc2ccc3cccnc3c2O)c1`, the half-maximal effective concentration (EC50) was under 0.06 µM.

With `CCCCCC(=O)NNC(=O)c1c(O)c2ccccc2n(CC)c1=O`, the EC50 was 1.36 µM.

As to `N#C/C(=C(/O)c1ccc2c(c1)OCO2)c1nc2cc(C(F)(F)F)ccc2s1`, the EC50 was 2.43 µM.

Consider `COC(=O)c1ccc(Cl)c(NC(=O)CSc2nnc(-c3ccncc3)o2)c1`, for which the EC50 is > 15 µM (inactive).

With `O=C(O)C(c1ccccc1)N1C(=O)/C(=C\c2ccc(-c3ccc(Br)cc3)o2)SC1=S` (configuration not stated), the EC50 is 1.27 µM.

As to `Cc1cccc(NC(=O)C2SC(=Nc3c(C)cccc3C)C(C(=O)N3CCOCC3)=C2N)c1` (configuration not stated), the 50% effective concentration (EC50) was 2.44 µM.

`Clc1ccc(-[n+]2c(-c3cccc(Br)c3)[nH]c3nc4ccccc4nc32)cc1`: the EC50 is 1.67 µM.

In the case of `Cc1nn2c(COc3ccc(NC(=O)c4ccccc4Cl)cc3)nnc2c2ccccc12`, the concentration giving a half-maximal response (EC50) is 1.63 µM.

In the case of `O=C(NC(=S)N1CCN(c2ccc(F)cc2)CC1)C12CC3CC(CC(C3)C1)C2`, the EC50 is 11.1 µM.

As for `CN1CCN(C2=Cc3cc(Cl)ccc3Sc3cc(F)ccc32)CC1`, the EC50 was 5.16 µM.

Turning to `COc1ccc(C(=O)NNC(=S)NC(=O)c2ccc(Br)o2)cc1OC`, the EC50 is 0.779 µM.

As for `Cc1cccc(Nc2nnc(-c3ccc(N4CCOCC4)c([N+](=O)[O-])c3)c3ccccc23)c1`, the EC50 was 4.52 µM.

With `Oc1ccc(-c2c(C3=CCCCC3)sc3ccccc23)cc1`, the EC50 was 4.97 µM.

Regarding `O=C(O)c1ccc2c3c(ncnc13)-c1ccccc1C2=O`, the EC50 was 5.26 µM.

On to `CCNC(=O)c1c(NC(=O)c2cc(-c3cc(C)ccc3O)n[nH]2)sc2c1CCCC2`, for which the EC50 was 2.44 µM.

For the molecule `COc1ccc2oc(C(=O)Nc3nc(-c4ccccn4)cs3)c(C)c2c1`, the EC50 was 1.19 µM.

Take `CC1(C)S[C@@H]2[C@H](NC(=O)COc3ccccc3)C(=O)N2C1C(=O)OCc1cc2ccccc2n1S(=O)(=O)c1ccccc1` (some centres not stated): the EC50 is 3.33 µM.

With `CC(Oc1ccc(Cl)cc1Cl)C(=O)Nc1ccc(S(=O)(=O)Nc2cnc3ccccc3n2)cc1` (configuration not stated), the EC50 is 3.88 µM.

On to `Cc1ccc(Nc2nc(N/N=C\c3ccc4c(c3)OCO4)nc(N3CCOCC3)n2)cc1`, for which the EC50 is 4.5 µM.

For `Cc1oc2cc(Br)c(O)c(Br)c2c1-c1ccccc1`, the concentration for a half-maximal effect (EC50) is 3.28 µM.

Regarding `CCOC(=O)C(C(=O)OCC)c1cc(Br)c2noc3c2c1C(=O)c1ccccc1-3`, the EC50 was 3.7 µM.

Turning to `CCCC(Oc1ccc(Br)cc1)c1nc2c3cc(OC)c(OC)cc3nc(=S)n2[nH]1` (configuration not stated), the EC50 was 0.145 µM.

Turning to `Cc1nn(-c2ccccc2)c(C)c1/C=N/NC(=O)c1cc(-c2cccc3ccccc23)n[nH]1`, the EC50 is 6.54 µM.

`CCCOC(=O)c1ccc(Oc2cn[nH]c2-c2ccc(OCC)cc2O)cc1`: the 50% effective concentration (EC50) was 1.37 µM.

On to `Cc1cccc(N2CCN(C(=O)c3ccc4nc(N5CCCCC5)sc4c3)CC2)c1C`, for which the EC50 is 7.63 µM.

Take `O=[N+]([O-])c1cccnc1N1CCC(c2cc(-c3ccc(Cl)cc3)n[nH]2)CC1`: the EC50 was 2.96 µM.

In the case of `CC(=O)N1CCN(c2ccccc2NC(=O)c2cccs2)CC1`, the EC50 was > 15 µM (inactive).

Consider `COC(=O)c1ccc(N2CCN(C)CC2)c(NC(=O)COc2ccc(C)cc2)c1`, for which the EC50 is > 15 µM (inactive).

As to `COc1cc([N+](=O)[O-])cc(/C=N/NC(=O)C(C)Nc2cccc(C)c2)c1O` (configuration not stated), the EC50 was 8.83 µM.

Take `CCCCCCCC(=O)NNC(=O)c1c(O)c2ccccc2n(CCC)c1=O`: the concentration giving a half-maximal response (EC50) was 1.1 µM.

`CCCNC(=O)c1ccc(N2CCC3(CC2)CC(c2ccccc2)=NO3)c(NC(=O)c2ccco2)c1`: the EC50 was 8 µM.

Regarding `COC(=O)c1ccc(N2CCC(c3cc(-c4ccc(OC)cc4)n[nH]3)CC2)c([N+](=O)[O-])c1`, the EC50 was 2.15 µM.

With `Cc1ccc(NS(=O)(=O)c2ccc(Cl)c(NC(=S)NC(=O)C3CCCCC3)c2)cc1Cl`, the EC50 is 1.13 µM.

For the molecule `Cc1cc(NC(=O)c2cnccn2)no1`, the EC50 is > 15 µM (inactive).

For `O=C(CCl)c1ccc(Cc2ncc(C(F)(F)F)cc2Cl)s1`, the EC50 was 3.69 µM.

In the case of `c1ccc(N2CCN(c3nc(-c4ccccn4)nc4ccccc34)CC2)cc1`, the EC50 is under 0.06 µM.

As for `CCOC(=O)c1ccc(NC(=O)c2nc[nH]c2C(=O)N[C@@H](Cc2ccccc2)C(=O)OC(C)(C)C)cc1`, the EC50 is 3.17 µM.

Turning to `O=C(NNc1nc2ccc(Cl)cc2s1)c1cc(-c2cccs2)nc2ccccc12`, the EC50 is 0.334 µM.
